Measured values published in patent US20100240709A1, “Sulfoximine Derivatives as p38 MAP Kinase Inhibitors” (priority 2005, published 2010).
Blank lines part the entries; values can stand above or below the compound they belong to.

How the values were obtained:
TNF α [1] = assay: In vivo LPS induced TNF α inhibition in Balb/c mice; conditions: 10 mg/kg orally, 30 minutes prior to i.v. LPS (50 μg/kg); blood 60 minutes after LPS
Experimental: Balb/c mice were kept for acclimatization in the observation room for two days before the experiment. On the day of the experiment, animals were weighed and the test compounds to be administered calculated at a 10 mg/kg body weight basis in a total volume of 2 ml. Control groups received vehicle alone while the treatment groups received the test compound, both given orally, 30 minutes prior to intravenous injection of LPS (50 μg/kg). Blood was collected 60 minutes after the LPS injection from retro orbital plexus, the serum separated & stored in deep freeze till the estimation of TNF by ELISA method.

p38 MAP kinase = p38 MAP kinase (Homo sapiens, UniProt Q16539); assay: p-38 MAPK Enzyme assay (in vitro ELISA, ATF-2 substrate); assay type: biochemical; conditions: ELISA detection of phosphorylated ATF-2
Description: The compounds were screened using an in vitro ELISA assay for p38 MAP kinase activity. Activated p38 MAP kinase during the course of its biological function phosphorylates its substrates. The assay was based on the detection of a phosphorylated p38 MAP kinase substrate using ATF-2 as the biological substrate. More the activity of the p38 MAP kinase inhibitor in the reaction mixture less will be the amount of active p38 MAP kinase available to phosphorylate ATF-2. So, lower OD value will indicate the higher inhibition of p38 MAP kinase by the specific p38 MAP kinase inhibitor. The quantitation of phosphorylated ATF-2 at varying concentrations of p38 MAP kinase inhibitor was used to determine the IC50 by fitting the results to a logistic dose-response program (Graphpad Prism, CA). IC50 was defined as the concentration of compound required to achieve 50% inhibition of p38 MAP kinase activity.

TNF α [2] = assay: Ex-vivo human whole blood, LPS-induced TNF-α by ELISA; assay type: cell-based; conditions: LPS 1 ng/ml; for inhibition at 10 µM / inhibition at 100 µM: Homo sapiens
Experimental: (§1) Blood was collected by venous puncture from 3 different volunteers in separate heparinized (100 IU/ml) tubes and incubated in the presence of 10 μM and 100 μM of test compounds for 1 hr at 37° C. Following this LPS (1 ng/ml final concentration) was added and incubation continued for 5 hr. The reaction was terminated by placing the samples on ice for 10 min. The samples were then centrifuged, plasma separated and stored at −70° C. until the analysis of TNF-α and IL-1β by ELISA: […]

IL-1 β = assay: Ex-vivo human whole blood, LPS-induced IL-1β by ELISA; assay type: cell-based; conditions: LPS 1 ng/ml; for inhibition at 10 µM / inhibition at 100 µM: Homo sapiens
Experimental: as §1

Chain of p38 MAP kinase (Q16539 whole entry): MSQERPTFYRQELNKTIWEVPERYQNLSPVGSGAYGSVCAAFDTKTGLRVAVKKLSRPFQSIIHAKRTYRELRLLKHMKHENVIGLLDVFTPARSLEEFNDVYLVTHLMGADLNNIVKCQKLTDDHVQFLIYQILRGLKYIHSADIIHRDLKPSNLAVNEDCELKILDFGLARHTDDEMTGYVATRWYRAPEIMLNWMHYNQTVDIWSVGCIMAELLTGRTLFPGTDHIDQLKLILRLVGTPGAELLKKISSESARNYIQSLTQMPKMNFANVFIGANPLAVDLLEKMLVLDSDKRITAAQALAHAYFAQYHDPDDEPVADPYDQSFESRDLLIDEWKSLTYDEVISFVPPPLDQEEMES

IC50 (p38 MAP kinase): 6.6 µM
Structure (SMILES): CCc1nc(-c2ccc(F)cc2)c(-c2ccnc(N=S(C)(=O)c3ccc(F)cc3)c2)s1 (single isomer, unassigned; (+)) [Example 44, (+)-S-Methyl-S-4-fluoro-phenyl-N-[4-(2-ethyl-4-(4-fluoro-phenyl)-1,3-thiazol-5-yl)-pyridine-2-yl]-sulfoximine]
In vivo LPS induced TNF α inhibition in Balb/c mice TNF α % inhibition (10 mg/kg) (TNF α [1]): 50.4%
TNF α % inhibition (TNF α [2]; Conc 10 μM): 32.74%
TNF α % inhibition (TNF α [2]; Conc 100 μM): 95.59%
IL-1 β % inhibition (IL-1 β; Conc 10 μM): 64.82%
IL-1 β % inhibition (IL-1 β; Conc 100 μM): 92.36%

IC50 (p38 MAP kinase): 9.8 µM
Structure (SMILES): CCc1nc(-c2ccccc2)c(-c2ccnc(N=S(C)(=O)c3cccc(C)c3)c2)s1 (stereo not drawn) [Example 24, S-Methyl-S-(3-Methylphenyl)-N-[4-{2-ethyl-4-phenyl-thiazol-5-yl}-pyridine]-sulfoximine]
In vivo LPS induced TNF α inhibition in Balb/c mice TNF α % inhibition (10 mg/kg) (TNF α [1]): 39.3%
inhibition at 10 µM (TNF α [2]; Conc 10 μM): 7.43%
inhibition at 100 µM (TNF α [2]; Conc 100 μM): 69.7%
inhibition at 10 µM (IL-1 β; Conc 10 μM): 22.7%
inhibition at 100 µM (IL-1 β; Conc 100 μM): 81.2%

IC50 (p38 MAP kinase): 13.4 µM
Structure (SMILES): CCc1nc(-c2ccc(F)cc2)c(-c2ccnc(N=S(=O)(c3ccccc3)C(C)C)c2)s1 (single isomer, unassigned; (-)) [Example 36, (−)-Isopropyl-S-phenyl-N-{4-[2-ethyl-4-(4-fluoro-phenyl)-thiazol-5-yl]-pyridin-2-yl}-sulfoximine]
In vivo LPS induced TNF α inhibition in Balb/c mice TNF α % inhibition (10 mg/kg) (TNF α [1]): 43.3%
inhibition at 10 µM (TNF α [2]; Conc 10 μM): 34.3%
inhibition at 100 µM (TNF α [2]; Conc 100 μM): 97.7%
inhibition at 10 µM (IL-1 β; Conc 10 μM): 38.9%
inhibition at 100 µM (IL-1 β; Conc 100 μM): 96.3%

IC50 (p38 MAP kinase): 11.8 µM
Structure (SMILES): CCc1nc(-c2ccc(F)c(F)c2)c(-c2ccnc(N=S(=O)(c3ccccc3)C(C)C)c2)s1 (centres unmarked) [Example 60, S-Isopropyl-S-phenyl-N-{4-[2-ethyl-4-(3,4-difluorophenyl)-thiazol-5-yl]-pyridin-2-yl}-sulfoximine]
In vivo LPS induced TNF α inhibition in Balb/c mice TNF α % inhibition (10 mg/kg) (TNF α [1]): 53.65%
inhibition at 10 µM (TNF α [2]; Conc 10 μM): 36.7%
inhibition at 100 µM (TNF α [2]; Conc 100 μM): 81.7%
inhibition at 10 µM (IL-1 β; Conc 10 μM): 35.2%
inhibition at 100 µM (IL-1 β; Conc 100 μM): 84.5%

IC50 (p38 MAP kinase): 71 µM
Structure (SMILES): CCc1nc(-c2ccc(F)cc2)c(-c2ccnc(N=S(C)(=O)c3ccc(F)cc3)c2)s1 (single isomer, unassigned; (-)) [Example 43, (−)-S-Methyl-S-4-fluoro-phenyl-N-[4-(2-ethyl-4-(4-fluoro-phenyl)-1,3-thiazol-5-yl)-pyridine-2-yl]-sulfoximine]
In vivo LPS induced TNF α inhibition in Balb/c mice TNF α % inhibition (10 mg/kg) (TNF α [1]): 49.4%
TNF α % inhibition (TNF α [2]; Conc 100 μM): 55.14%
inhibition at 10 µM (TNF α [2]; Conc 10 μM): 17.8%
IL-1 β % inhibition (IL-1 β; Conc 10 μM): 24.62%
inhibition at 100 µM (IL-1 β; Conc 100 μM): 79.3%

Structure (SMILES): CCc1nc(-c2ccc(F)cc2)c(-c2ccnc(N=S(C)(=O)c3cccc(F)c3)c2)s1 (centres unmarked) [Example 47, S-Methyl-S-3-fluorophenyl-N-[4-{2-ethyl-4-(4-fluorophenyl)-thiazol-5-yl}-pyridine-2-yl]-sulfoximine]
In vivo LPS induced TNF α inhibition in Balb/c mice TNF α % inhibition (10 mg/kg) (TNF α [1]): 48.60%
inhibition at 10 µM (TNF α [2]; Conc 10 μM): 24.4%
inhibition at 100 µM (TNF α [2]; Conc 100 μM): 89.6%
inhibition at 10 µM (IL-1 β; Conc 10 μM): 78.1%
inhibition at 100 µM (IL-1 β; Conc 100 μM): 98.5%

Structure (SMILES): CCc1nc(-c2ccccc2)c(-c2ccnc(N=S(C)(=O)c3cccc(F)c3)c2)s1 (stereo not drawn) [Example 25, S-Methyl-S-(3-fluorophenyl)-N-[4-{2-ethyl-4-phenyl-thiazol-5-yl}-pyridine]-sulfoximine]
In vivo LPS induced TNF α inhibition in Balb/c mice TNF α % inhibition (10 mg/kg) (TNF α [1]): 59.6%
TNF α % inhibition (TNF α [2]; Conc 10 μM): 15.39%
TNF α % inhibition (TNF α [2]; Conc 100 μM): 64.06%
IL-1 β % inhibition (IL-1 β; Conc 10 μM): 38.5%
IL-1 β % inhibition (IL-1 β; Conc 100 μM): 79.4%

Structure (SMILES): CCc1nc(-c2ccc(F)cc2)c(-c2ccnc(N=S(C)(=O)c3cccc(C)c3)c2)s1 (centres unmarked) [Example 46, S-Methyl-S-3-methylphenyl-N-[4-(2-ethyl-4-fluorophenyl-thiazol-5-yl)-pyridine]-sulfoximine]
In vivo LPS induced TNF α inhibition in Balb/c mice TNF α % inhibition (10 mg/kg) (TNF α [1]): 56.80%
TNF α % inhibition (TNF α [2]; Conc 10 μM): 40.9%
TNF α % inhibition (TNF α [2]; Conc 100 μM): 90.1%
IL-1 β % inhibition (IL-1 β; Conc 10 μM): 73.3%
IL-1 β % inhibition (IL-1 β; Conc 100 μM): 95.8%

IC50 (p38 MAP kinase): 3.9 µM
Structure (SMILES): CC(C)S(=O)(=Nc1cc(-c2scnc2-c2cccc(F)c2)ccn1)c1ccccc1 (centres unmarked) [Example 72]

IC50 (p38 MAP kinase): 3.9 µM
Structure (SMILES): CCc1nc(-c2ccc(F)cc2)c(-c2ccnc(N=S(C)(=O)c3ccccc3)c2)s1 (single isomer, unassigned; (-)) [Example 33, (−)-S-Methyl-S-phenyl-N-{-4-[2-ethyl-4-(4-fluoro-phenyl)-thiazol-5-yl]-pyridin-2-yl}-sulfoximine]

IC50 (p38 MAP kinase): 1.4 µM
Structure (SMILES): CCc1nc(-c2cccc(C)c2)c(-c2ccnc(N=[S@@](C)(=O)c3ccccc3)c2)s1 [Example 5, (+)-(S)-methyl-S-phenyl-N-[4-(2-ethyl-4-(3-methylphenyl)-1,3-thiazol-5-yl)-pyridine-2-yl]-sulfoximine]

IC50 (p38 MAP kinase): 15 µM
Structure (SMILES): CCc1nc(-c2cccc(C)c2)c(-c2ccnc(N=S3(=O)CCCCC3)c2)s1 [Example 18, 1-Imino-N-[4-(2-ethyl-4-(3-methylphenyl)-1,3-thiazol-5-yl)-pyridine-2-yl]-tetrahydro-2H-thiopyran-1-oxide]

IC50 (p38 MAP kinase): 5.42 µM
Structure (SMILES): CCc1nc(-c2cccc(C)c2)c(-c2ccnc(N=S(C)(=O)c3cccc(F)c3)c2)s1 (stereo not drawn) [Example 9, S-(3-Fluorophenyl)-S-methyl-N-[4-(2-ethyl-4-m-tolyl-thiazol-5-yl)-pyridin-2-yl]-sulfoximine]

IC50 (p38 MAP kinase): 0.46 µM
Structure (SMILES): CCc1nc(-c2ccccc2)c(-c2ccnc(N=S(=O)(c3ccccc3)C3CCCC3)c2)s1 (centres unmarked) [Example 28, S-Cyclopentyl-S-phenyl-N-[4-{2-ethyl-4-phenyl-thiazol-5-yl}-pyridine]-sulfoximine]

IC50 (p38 MAP kinase): 6.4 µM
Structure (SMILES): CCc1nc(-c2ccc(F)cc2)c(-c2ccnc(N=S(C)(=O)c3ccc(OC)cc3)c2)s1 (stereo not drawn) [Example 34, S-(4-Methoxy-phenyl)-S-methyl-N-{-4-[2-ethyl-4-(4-fluoro-phenyl)-thiazol-5-yl]-pyridin-2-yl}-sulfoximine]

IC50 (p38 MAP kinase): 8.2 µM
Structure (SMILES): O=S(=Nc1cc(-c2scnc2-c2cccc(F)c2)ccn1)(c1ccccc1)C1CCCC1 (centres unmarked) [Example 70]

IC50 (p38 MAP kinase): 1.12 µM
Structure (SMILES): CCc1nc(-c2cccc(C)c2)c(-c2ccnc(N=S(C)(=O)c3ccccc3)c2)s1 (centres unmarked) [Example 4, S-Methyl-S-phenyl-N-[4-(2-ethyl-4-(3-methylphenyl)-1,3-thiazol-5-yl)-pyridine-2-yl]-sulfoximine]

IC50 (p38 MAP kinase): 3.2 µM
Structure (SMILES): CCc1nc(-c2ccccc2)c(-c2ccnc(N=S(C)(=O)c3ccccc3)c2)s1 (centres unmarked) [Example 31]

IC50 (p38 MAP kinase): 14.6 µM
Structure (SMILES): CCc1nc(-c2ccc(F)cc2)c(-c2ccnc(N=S(=O)(c3ccccc3)C(C)C)c2)s1 (centres unmarked) [Example 35, S-Isopropyl-S-phenyl-N-{-4-[2-ethyl-4-(4-fluoro-phenyl)-thiazol-5-yl]-pyridin-2-yl}-sulfoximine]
